In patent US11980633B2, “Method for treating cancer using a combination of DNA-damaging agents and DNA-PK inhibitors” (Vertex Pharmaceuticals Incorporated, priority 2016, dated 2024):

System: A549 lung cancer cells
Assay: Timing and duration of Compound B-2 exposure on sensitization of A549 cells to doxorubicin hydrochloride (24 h); CellTiterGlo viability at 6 days, Bliss analysis
Type: cell-based, human
Set-up: scale not given here
Method: Cell lines, reagents, equipment, software: The human cancer cell line A549 (CCL-185) was obtained from American Type Culture Collection (ATCC; Manassas, VA). Compound B-2 used in these experiments was not prepared as a co-crystal. A 10 mM stock solution of Compound B-2 was prepared in DMSO (ATCC catalog #4-X) and stored at −20° C. Doxorubicin hydrochloride (dox) was obtained from Sigma (St. Louis, MO) (catalog #D1515), dissolved in DMSO to a 10 mM concentration and stored at −20° C.
Cell culture: The A549 human lung cancer cell line was cultured in DMEM (Life Technologies, catalog #11995) supplemented with 10% fetal bovine serum (Hyclone, catalog #SH30071.03), 1× GlutaMAX (Life Technologies, catalog #35050-061), pyruvate (Life Technologies, catalog #11360-070) and 1× Penicillin/Streptomycin (Life Technologies, catalog #15070) (complete medium). Cells were maintained at a sub-confluent state by passaging every 3-4 days. Cells were plated at 1000 cells per well in a 96-well, clear-bottomed microplate (Corning, catalog #3904), and incubated in a 37° C., 5% CO2 incubator attach overnight prior to compound addition.
Treatment with Compound B-2 and Doxorubicin hydrochloride: Ten mM stocks of Compound B-2 and doxorubicin hydrochloride were made in DMSO and added in combination to the plated cells using an HP digital dispenser D300 (Tecan, Switzerland). For these experiments, combinations with Compound B-2 at all concentrations were run in singlicate using a combination matrix in which Compound B-2 was added as a titration from 20 μM to 0.1 μM on the X-axis of the plate and doxorubicin hydrochloride added in a 2-fold dilution from 80 nM to 0.125 nM for the 6 day and 24 hour co-incubation experiments and 8 nM to 0.0125 nM for the rest of the experiments on the Y-axis. One row contained only the Compound B-2 titration and one column only the doxorubicin hydrochloride titration. Two columns of cells were used as a no-treatment control from which the fractional survival of the treated cells was determined. Cells were cultured at 37° C., 5% CO2, 95% air and 100% relative humidity. The timing of compound addition, the washout of the compounds from the wells of the plates and re-addition of doxorubicin hydrochloride was as detailed in FIG. 1. Briefly, the media from all of the wells in the plate were removed by hand using a multi-pipette, fresh (no compound) media was added, then removed again and then fresh media was added one last time. The re-addition of doxorubicin hydrochloride, where indicated, was performed using the HP D300 as outlined in FIG. 1. After 24 h, all plates were washed as detailed above and fresh medium (no compound) added. The plates were incubated for an additional 5 days (6 days in total).
Cell Viability Analysis: Six days after initial compound addition, 50 μL of CellTiterGlo (prepared according to manufacturer's protocol) was added to each well of the compound titration plates. Luminescence was read on a Pherastar FS luminescence reader (BMG Labtech, Offenberg, Germany) and these values were used for all further analyses.
Computational Methods: Cell viabilities were evaluated for a matrix of doxorubicin hydrochloride and Compound B-2 concentrations in a series of experiments testing different times of Compound B-2 addition and durations of Compound B-2 exposure. The data from each of these experiments were analyzed separately. The steps in the analysis of each experiment are described below. • 1. For each Compound B-2 concentration, the EC50 of doxorubicin hydrochloride was calculated using Prism software. The concentration in the matrix of doxorubicin hydrochloride concentrations closest to the EC50 was then identified. • 2. […]

Structure (SMILES): [2H]c1nc(C)nc([2H])c1-c1cc(NC[C@@H](C)c2cccc3c(C(=O)NC)ccnc23)ncn1 [Compound B-2]
- Bliss AUC (Experiment A: Compound B-2 added 0 h after doxorubicin hydrochloride, exposure 24 h): 728
- Bliss AUC (Experiment B: Compound B-2 added at 0 h, exposure 16 h): 101
- Bliss AUC (Experiment C: Compound B-2 added at 8 h, exposure 16 h): 710
- Bliss AUC (Experiment E: Compound B-2 added at 4 h, exposure 12 h): 266
- Bliss AUC (Experiment G: Compound B-2 added at 12 h, exposure 12 h): 415
- Bliss AUC (Experiment H: Compound B-2 added at 0 h, exposure 8 h): 71
- Bliss AUC (Experiment I: Compound B-2 added at 4 h, exposure 8 h): 49
- Bliss AUC (Experiment J: Compound B-2 added at 8 h, exposure 8 h): 12
- Bliss AUC (Experiment K: Compound B-2 added at 12 h, exposure 8 h): 124
- Bliss AUC (Experiment L: Compound B-2 added at 16 h, exposure 8 h): 323
